Reference: ChEMBL document CHEMBL1126502, “Enhancement of binding of quaternary ammonium derivatives of chlorpromaxine to dopamine D-2 receptors by the addition of a H-bonding group” (Bioorg Med Chem Lett, 1993)

Target: D(2) dopamine receptor (Rattus norvegicus, UniProt P61169)
Assay: Tested for Competitive binding inhibition of [3H]spiperone to Dopamine receptor D2 in rat striatal membrane.
Type: cell membranes

Chain of D(2) dopamine receptor (P61169 whole entry): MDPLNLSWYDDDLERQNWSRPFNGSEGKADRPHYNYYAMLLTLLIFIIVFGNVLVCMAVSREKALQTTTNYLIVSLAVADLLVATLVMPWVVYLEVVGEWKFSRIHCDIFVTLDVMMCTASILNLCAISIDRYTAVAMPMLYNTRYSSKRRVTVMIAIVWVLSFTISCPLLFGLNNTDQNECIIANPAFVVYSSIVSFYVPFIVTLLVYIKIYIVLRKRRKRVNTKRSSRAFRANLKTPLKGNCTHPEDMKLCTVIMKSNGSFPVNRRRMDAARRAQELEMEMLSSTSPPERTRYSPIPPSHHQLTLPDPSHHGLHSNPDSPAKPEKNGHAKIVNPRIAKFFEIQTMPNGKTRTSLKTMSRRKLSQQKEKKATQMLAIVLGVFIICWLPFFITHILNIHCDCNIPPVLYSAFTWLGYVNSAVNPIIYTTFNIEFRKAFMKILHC

Row | Ki | SMILES
1 | 4.88 µM | C[N+](C)(C)NCCN1c2ccccc2Sc2ccc(Cl)cc21
2 | 0.82 µM | C[N+](C)(N)CCCN1c2ccccc2Sc2ccc(Cl)cc21
3 | 8.57 µM | C[N+](C)(C)CCCN1c2ccccc2Sc2ccc(Cl)cc21
